Experimental data reported in patent publication US20040229356A1, “In vitro mass production of human erythroid cells from the blood of normal donors and thalassemic patients” (ISTITUTO SUPERIORE DI SANITA, priority 2003, published 2004).

Key:
CD34^+ cells [1] = assay: Proliferative-phase liquid culture of CD34+ cells (total cell number, benzidine staining); type: cell-based, human; conditions: day 8 of proliferative phase; estradiol or dexamethasone added to GFs (SCF, IL-3, EPO)
Procedure: Light-density cells were collected, washed with Hank's basal salt solution supplemented with 1% (w/v) bovine serum albumin, and either cultured directly or cryopreserved in 10% dimethyl sulfoxide (Sigma, St. Louis, Mo.). Frozen cadaveric marrow cells obtained from Northwest Tissue Center, Puget Sound Blood Bank (Seattle, Wash.) were thawed, washed, and incubated overnight in IMDM with 10% fetal calf serum on tissue culture plates to remove adherent cells. […]
Cell morphology was analyzed according to standard criteria on cytocentrifuged (Shandon, Astmoor, England) smears stained with May-Grumwald-Giemsa. […] The cell antigenic profile was analyzed by flow cytometry with a Coulter Elite ESP Cell Sorter (Coulter, Miami, Fla.) according to standard protocols. […] Cells incubated with the corresponding, irrelevant, isotype-matched antibodies were used for gating nonspecific fluorescence and dead cells were excluded by propidium iodide staining (5 μg/mL) (Sigma).
The total cell number observed in cultures of CD34^+ cells cultured for up to 14 days in the presence of the combination of SCF, IL-3 and EPO (growth factors, GFs), alone or with the further addition of estradiol or of dexamethasone, is presented in FIG. 1. In all three conditions analyzed, the total cell number per culture rose from 0.1×10^6 cells at day 0 to 10×10^6 at day 7 and continued to increase, reaching up to 100×10^6 by day 13. […]

CD34^+ cells [2] = assay: Differentiative-phase culture (EPO and insulin, 5 additional days) of cells harvested from the proliferative phase, benzidine staining; type: cell-based, human; conditions: for frequency of benzidine^pos cells after differentiative phase: independent of priming duration (either 8 or 13 days) with GFs plus the steroid, then EPO and insulin
Procedure: Light-density cells and CD34^+ cells were cultured for the proliferative phase in Iscove's modified Dulbecco's medium (IMDM, Mascia Brunelli, Milan, Italy) containing 20% of fetal bovine serum (FBS, Hyclone, Logan, Utah) and supplemented with Stem Cell Factor (SCF, 10 ng/mL) (Amgen, Thousand Oaks, Calif.), Erythropoietin (EPO, 1 u/mL) (Epoetina alfa, Dompe Biotec, Milan, Italy), Interleukin-3 (IL-3, 1 ng/mL) (Bouty, Milan, Italy), dexamethasone (10^−6 M) (Sigma), and estradiol (10^−6 M) (Sigma). Light-density and CD34^+ cells were seeded at a concentration of 10^6 and 10^5 cells/mL, respectively.
Cell morphology was analyzed according to standard criteria on cytocentrifuged (Shandon, Astmoor, England) smears stained with May-Grumwald-Giemsa. Hemoglobin-containing cells were identified by benzidine staining (S. H. Orkin, Proc. Natl. Acad. Sci. USA 72, 98-102 (1975)). The cell antigenic profile was analyzed by flow cytometry with a Coulter Elite ESP Cell Sorter (Coulter, Miami, Fla.) according to standard protocols. […] Cells incubated with the corresponding, irrelevant, isotype-matched antibodies were used for gating nonspecific fluorescence and dead cells were excluded by propidium iodide staining (5 μg/mL) (Sigma).
The total cell number observed in cultures of CD34^+ cells cultured for up to 14 days in the presence of the combination of SCF, IL-3 and EPO (growth factors, GFs), alone or with the further addition of estradiol or of dexamethasone, is presented in FIG. 1. In all three conditions analyzed, the total cell number per culture rose from 0.1×10^6 cells at day 0 to 10×10^6 at day 7 and continued to increase, reaching up to 100×10^6 by day 13. […] The total number of erythroid cells obtained at the end of the proliferative-plus-differentiative phase can be calculated by multiplying the total number of cells presented in FIG. 1 by the frequency of benzidinepos cells presented in FIG. 2. […]

| SMILES | percent of benzidine positive cells (mature erythroid cells) (CD34^+ cells [1]) [%] | total number of erythroid cells obtained at end of proliferative-plus-differentiative phase (CD34^+ cells [2]; differentiation started at day 8 of proliferative phase, total cell number multiplied by benzidine^pos frequency) | frequency of benzidine^pos cells after differentiative phase (CD34^+ cells [2]) |
| --- | --- | --- | --- |
| C[C@@H]1C[C@H]2[C@@H]3CCC4=CC(=O)C=C[C@]4(C)[C@@]3(F)[C@@H](O)C[C@]2(C)[C@@]1(O)C(=O)CO [dexamethasone] | < 10 | ≤ 7×10^6 erythroid cells | 80-95% |
| C[C@]12CC[C@@H]3c4ccc(O)cc4CC[C@H]3[C@@H]1CC[C@@H]2O [estradiol] |  |  | 40-60% |
